{
  "source": "paper doi:10.1101/2024.09.05.611129v1",
  "about": "(biorxiv, 2024)",
  "molecular_target": "MtKatG (Mycobacterium tuberculosis, UniProt P9WIE5)",
  "sequence (P9WIE5 whole entry)": "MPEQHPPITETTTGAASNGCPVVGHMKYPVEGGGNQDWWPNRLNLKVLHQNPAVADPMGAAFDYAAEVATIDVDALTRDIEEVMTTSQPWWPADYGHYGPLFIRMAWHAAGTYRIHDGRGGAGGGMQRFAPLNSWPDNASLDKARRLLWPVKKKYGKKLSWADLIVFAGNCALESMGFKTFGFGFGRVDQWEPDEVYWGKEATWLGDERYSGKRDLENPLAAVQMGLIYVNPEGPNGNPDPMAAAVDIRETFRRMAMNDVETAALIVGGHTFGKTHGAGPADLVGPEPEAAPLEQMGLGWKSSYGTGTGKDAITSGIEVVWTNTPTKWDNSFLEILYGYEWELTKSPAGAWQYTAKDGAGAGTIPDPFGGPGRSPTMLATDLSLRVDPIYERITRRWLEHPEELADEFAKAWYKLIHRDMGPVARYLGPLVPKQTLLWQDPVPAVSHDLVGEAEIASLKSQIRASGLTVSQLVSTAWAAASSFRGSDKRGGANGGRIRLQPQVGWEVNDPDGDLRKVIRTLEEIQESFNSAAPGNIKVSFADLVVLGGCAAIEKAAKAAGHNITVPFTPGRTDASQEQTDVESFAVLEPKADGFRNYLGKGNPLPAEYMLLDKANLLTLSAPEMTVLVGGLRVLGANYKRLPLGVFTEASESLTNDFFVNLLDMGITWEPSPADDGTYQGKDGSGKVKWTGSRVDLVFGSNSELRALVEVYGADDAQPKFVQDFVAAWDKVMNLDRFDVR",
  "data": [
    {"compound": "CC(C)(C)OO", "note": "[t-BuOOH]", "values": [
      {"measurement": "Km", "result": "19 ± 6", "unit": "mM"}
    ]}
  ]
}
